Measurements reported in ChEMBL document CHEMBL5316337, “Critical Role of Position 10 Residue in the Polymyxin Antimicrobial Activity” (J Med Chem, 2023).
Converted amounts (≈) assume the structure as drawn.

What was measured:
Format in all cases: functional
[1] = system: Pseudomonas aeruginosa; experiment: Antibacterial activity against polymyxin-susceptible Pseudomonas aeruginosa FADD1-PA025 clinical isolates assessed as reduction in bacterial growth by broth microdilution method
[2] = system: Enterobacter cloacae; experiment: Antibacterial activity against polymyxin-susceptible Enterobacter cloacae FADD1-EC006 clinical isolates assessed as reduction in bacterial growth by broth microdilution method
[3] = system: Klebsiella pneumoniae; experiment: Antibacterial activity against polymyxin-susceptible Klebsiella pneumoniae ATCC 700721 clinical isolates assessed as reduction in bacterial growth by broth microdilution method
[4] = system: Pseudomonas aeruginosa; experiment: Antibacterial activity against polymyxin-susceptible Pseudomonas aeruginosa ATCC 27853 clinical isolates assessed as reduction in bacterial growth by broth microdilution method
[5] = system: Pseudomonas aeruginosa; experiment: Antibacterial activity against Carbapenem-resistant Pseudomonas aeruginosa FADD1-PA022 clinical isolates assessed as reduction in bacterial growth by broth microdilution method
[6] = system: Klebsiella pneumoniae; experiment: Antibacterial activity against Carbapenem-resistant Klebsiella pneumoniae FADD1-KP022 clinical isolates assessed as reduction in bacterial growth by broth microdilution method
[7] = system: Pseudomonas aeruginosa; experiment: Antibacterial activity against Carbapenem-resistant Pseudomonas aeruginosa FADD1-PA001 clinical isolates assessed as reduction in bacterial growth by broth microdilution method
[8] = system: Acinetobacter baumannii; experiment: Antibacterial activity against polymyxin-susceptible Acinetobacter baumannii ATCC 17978 clinical isolates assessed as reduction in bacterial growth by broth microdilution method
[9] = system: Pseudomonas aeruginosa; experiment: Antibacterial activity against polymyxin-susceptible Pseudomonas aeruginosa FADD1-PA038 clinical isolates assessed as reduction in bacterial growth by broth microdilution method
[10] = system: Acinetobacter baumannii; experiment: Antibacterial activity against Carbapenem-resistant Acinetobacter baumannii FADD1-AB030 clinical isolates assessed as reduction in bacterial growth by broth microdilution method
[11] = system: Enterobacter cloacae; experiment: Antibacterial activity against polymyxin-susceptible Enterobacter cloacae FADD1-EC003 clinical isolates assessed as reduction in bacterial growth by broth microdilution method
[12] = system: Enterobacter cloacae; experiment: Antibacterial activity against polymyxin-susceptible Enterobacter cloacae FADD1-EC001 clinical isolates assessed as reduction in bacterial growth by broth microdilution method
[13] = system: Klebsiella pneumoniae; experiment: Antibacterial activity against Carbapenem-resistant Klebsiella pneumoniae FADD1-KP032 clinical isolates assessed as reduction in bacterial growth by broth microdilution method
[14] = system: Klebsiella pneumoniae; experiment: Antibacterial activity against Carbapenem-resistant Klebsiella pneumoniae FADD1-KP065 clinical isolates assessed as reduction in bacterial growth by broth microdilution method
[15] = system: Klebsiella pneumoniae; experiment: Antibacterial activity against Carbapenem-resistant Klebsiella pneumoniae BM1 clinical isolates assessed as reduction in bacterial growth by broth microdilution method
[16] = system: Acinetobacter baumannii; experiment: Antibacterial activity against polymyxin-susceptible Acinetobacter baumannii ATCC 19606 clinical isolates assessed as reduction in bacterial growth by broth microdilution method
[17] = system: Acinetobacter baumannii; experiment: Antibacterial activity against Carbapenem-resistant Acinetobacter baumannii FADD1-AB034 clinical isolates assessed as reduction in bacterial growth by broth microdilution method

SMILES	MIC [1]	MIC [2]	MIC [3]	MIC [4]	MIC [5]	MIC [6]	MIC [7]	MIC [8]	MIC [9]	MIC [10]	MIC [11]	MIC [12]	MIC [13]	MIC [14]	MIC [15]	MIC [16]	MIC [17]
CC[C@H](C)CCCCC(=O)N[C@@H](CCN)C(=O)N[C@H](C(=O)N[C@@H](CCN)C(=O)N[C@H]1CCNC(=O)[C@H](Cc2c[nH]c3ccccc23)NC(=O)[C@H](CCN)NC(=O)[C@H](CCN)NC(=O)[C@H](CC(C)C)NC(=O)[C@@H](Cc2ccccc2)NC(=O)[C@H](CCN)NC1=O)[C@@H](C)O	2 µg/mL (≈ 1.55 µM)	4 µg/mL (≈ 3.1 µM)	8 µg/mL (≈ 6.21 µM)	2 µg/mL (≈ 1.55 µM)	2 µg/mL (≈ 1.55 µM)	1 µg/mL (≈ 0.776 µM)	4 µg/mL (≈ 3.1 µM)	4 µg/mL (≈ 3.1 µM)	4 µg/mL (≈ 3.1 µM)	2 µg/mL (≈ 1.55 µM)	8 µg/mL (≈ 6.21 µM)	8 µg/mL (≈ 6.21 µM)	4 µg/mL (≈ 3.1 µM)	2 µg/mL (≈ 1.55 µM)	4 µg/mL (≈ 3.1 µM)	2 µg/mL (≈ 1.55 µM)	4 µg/mL (≈ 3.1 µM)
CC[C@H](C)CCCCC(=O)N[C@@H](CCN)C(=O)N[C@H](C(=O)N[C@@H](CCN)C(=O)N[C@H]1CCNC(=O)CNC(=O)[C@H](CCN)NC(=O)[C@H](CCN)NC(=O)[C@H](CC(C)C)NC(=O)[C@@H](Cc2ccccc2)NC(=O)[C@H](CCN)NC1=O)[C@@H](C)O	2 µg/mL (≈ 1.72 µM)	4 µg/mL (≈ 3.45 µM)	8 µg/mL (≈ 6.9 µM)	0.5 µg/mL (≈ 0.431 µM)	0.5 µg/mL (≈ 0.431 µM)	1 µg/mL (≈ 0.862 µM)	1 µg/mL (≈ 0.862 µM)	4 µg/mL (≈ 3.45 µM)	8 µg/mL (≈ 6.9 µM)	> 32 µg/mL	4 µg/mL (≈ 3.45 µM)	4 µg/mL (≈ 3.45 µM)	4 µg/mL (≈ 3.45 µM)	0.5 µg/mL (≈ 0.431 µM)	> 32 µg/mL	> 32 µg/mL	32 µg/mL (≈ 27.6 µM)
CC[C@H](C)CCCCC(=O)N[C@@H](CCN)C(=O)N[C@H](C(=O)N[C@@H](CCN)C(=O)N[C@H]1CCNC(=O)[C@H](CN)NC(=O)[C@H](CCN)NC(=O)[C@H](CCN)NC(=O)[C@H](CC(C)C)NC(=O)[C@@H](Cc2ccccc2)NC(=O)[C@H](CCN)NC1=O)[C@@H](C)O	2 µg/mL (≈ 1.68 µM)	16 µg/mL (≈ 13.5 µM)	> 32 µg/mL	4 µg/mL (≈ 3.37 µM)	0.5 µg/mL (≈ 0.421 µM)	1 µg/mL (≈ 0.841 µM)	2 µg/mL (≈ 1.68 µM)	1 µg/mL (≈ 0.841 µM)	4 µg/mL (≈ 3.37 µM)	2 µg/mL (≈ 1.68 µM)	4 µg/mL (≈ 3.37 µM)	2 µg/mL (≈ 1.68 µM)	2 µg/mL (≈ 1.68 µM)	1 µg/mL (≈ 0.841 µM)	4 µg/mL (≈ 3.37 µM)	2 µg/mL (≈ 1.68 µM)	1 µg/mL (≈ 0.841 µM)
CC[C@H](C)CCCCC(=O)N[C@@H](CCN)C(=O)N[C@H](C(=O)N[C@@H](CCN)C(=O)N[C@H]1CCNC(=O)[C@H](C(C)N=[N+]=[N-])NC(=O)[C@H](CCN)NC(=O)[C@H](CCN)NC(=O)[C@H](CC(C)C)NC(=O)[C@@H](Cc2ccccc2)NC(=O)[C@H](CCN)NC1=O)[C@@H](C)O (some centres not stated)	1 µg/mL (≈ 0.814 µM)	32 µg/mL (≈ 26 µM)	4 µg/mL (≈ 3.26 µM)	1 µg/mL (≈ 0.814 µM)	1 µg/mL (≈ 0.814 µM)	1 µg/mL (≈ 0.814 µM)	1 µg/mL (≈ 0.814 µM)	2 µg/mL (≈ 1.63 µM)	4 µg/mL (≈ 3.26 µM)	0.5 µg/mL (≈ 0.407 µM)	4 µg/mL (≈ 3.26 µM)	8 µg/mL (≈ 6.51 µM)	2 µg/mL (≈ 1.63 µM)	1 µg/mL (≈ 0.814 µM)	2 µg/mL (≈ 1.63 µM)	2 µg/mL (≈ 1.63 µM)	2 µg/mL (≈ 1.63 µM)
CC[C@H](C)CCCCC(=O)N[C@@H](CCN)C(=O)N[C@H](C(=O)N[C@@H](CCN)C(=O)N[C@H]1CCNC(=O)[C@H](CS)NC(=O)[C@H](CCN)NC(=O)[C@H](CCN)NC(=O)[C@H](CC(C)C)NC(=O)[C@@H](Cc2ccccc2)NC(=O)[C@H](CCN)NC1=O)[C@@H](C)O	8 µg/mL (≈ 6.64 µM)	16 µg/mL (≈ 13.3 µM)	16 µg/mL (≈ 13.3 µM)	4 µg/mL (≈ 3.32 µM)	4 µg/mL (≈ 3.32 µM)	4 µg/mL (≈ 3.32 µM)	8 µg/mL (≈ 6.64 µM)	16 µg/mL (≈ 13.3 µM)	8 µg/mL (≈ 6.64 µM)	32 µg/mL (≈ 26.5 µM)	16 µg/mL (≈ 13.3 µM)	16 µg/mL (≈ 13.3 µM)	16 µg/mL (≈ 13.3 µM)	4 µg/mL (≈ 3.32 µM)	16 µg/mL (≈ 13.3 µM)	16 µg/mL (≈ 13.3 µM)	16 µg/mL (≈ 13.3 µM)
CC[C@H](C)CCCCC(=O)N[C@@H](CCN)C(=O)N[C@H](C(=O)N[C@@H](CCN)C(=O)N[C@H]1CCNC(=O)[C@H](COC)NC(=O)[C@H](CCN)NC(=O)[C@H](CCN)NC(=O)[C@H](CC(C)C)NC(=O)[C@@H](Cc2ccccc2)NC(=O)[C@H](CCN)NC1=O)[C@@H](C)O	2 µg/mL (≈ 1.66 µM)	32 µg/mL (≈ 26.6 µM)	4 µg/mL (≈ 3.32 µM)	0.5 µg/mL (≈ 0.415 µM)	1 µg/mL (≈ 0.831 µM)	0.25 µg/mL (≈ 0.208 µM)	2 µg/mL (≈ 1.66 µM)	2 µg/mL (≈ 1.66 µM)	8 µg/mL (≈ 6.65 µM)	1 µg/mL (≈ 0.831 µM)	8 µg/mL (≈ 6.65 µM)	8 µg/mL (≈ 6.65 µM)	2 µg/mL (≈ 1.66 µM)	1 µg/mL (≈ 0.831 µM)	1 µg/mL (≈ 0.831 µM)	8 µg/mL (≈ 6.65 µM)	4 µg/mL (≈ 3.32 µM)
